Consider 2 molecules from patent US11957655B2, “Methods of treating hearing loss” (The Regents of the University of California, priority 2015, dated 2024).

For assay [1], the system named is UPR induction (CHOP and ATF4 mRNA) in HEK293T cells. As to the kind of experiment: UPR induction by thapsigargin in HEK293T cells, CHOP and ATF4 mRNA by qPCR. Format: cell-based. Particulars: HEK293T cells pretreated with ISRIB vs control formulation, then 1 micromolar thapsigargin. How it is done: In another experiment, HEK293T cells were pretreated with a control formulation or ISRIB, […], then exposed […] to 1 micromolar thapsigargin for 2 hours. CHOP and ATF4 mRNA levels were then assessed by qPCR.

The subject of assay [2] is wild type mice exposed to damaging noise. Briefly: Noise-induced hearing loss in wild type mice, ABR threshold. Format: in vivo, mouse. The note with it: 2.5 mg/kg intraperitoneal 4 hours before damaging noise, treated vs untreated (FIG. 9, N=3). Here is the method: FIG. 9 depicts ABR threshold to click, 8 kHz, and 16 kHz stimuli in mice treated with ISRIB (dotted line, N=3)) compared with vehicle (solid line, N=3). All values are means with error bars indicating the standard error of the mean.
Wild type mice were subjected to the same treatment and cochleae were subsequently removed and apoptotic ER response gene expression was assessed.
ISRIB was delivered […] via intraperitoneal injection 4 hours before exposure to damaging noise, at 2.5 mg/kg.

Assay [3] deals with SERCA2b; fibroblast cells from TMTC4 KO and wild type mice. Briefly: UPR stress pathway gene mRNA in fibroblasts treated with thapsigargin. Format: cell-based, mouse. Particulars: TMTC4 KO compared to wild type cells. How it is done: Fibroblast cells were generated from TMTC4 KO mice and wild type mice. One group of cells was treated with the SERCA2b inhibitor thapsigargin. The expression of UPR stress pathway genes spliced X-box binding protein 1 (S-XBP1), the molecular chaperone BiP, and the pro-apoptotic protein CHOP were measured by mRNA quantification. The expression of the UPR stress response markers was low and was about equal in untreated wild type and TMTC4 KO cells.

The test system of assay [4] is SERCA2b; cochlear explants from TMTC4 KO and wild type mice. Briefly: UPR stress pathway and Caspase 3 mRNA in cochlear explants treated with thapsigargin. Format: cell-based, mouse. The note with it: thapsigargin treated cochlear explants from TMTC4 KO and wild type mice (FIG. 2). How it is done: FIG. 2. SYBR Green measurement of qPCR product measuring RNA expression of spliced X-box binding protein 1 (S-XBP1), the molecular chaperone BiP, the pro-apoptotic protein CHOP, and Caspase 3 in cochlear explants from mice. WT=wild type and KO=TMTC4 knockout mice. +TG indicates explants treated with the SERCA2b inhibitor thapsigargin. In another experiment, cochlear explants from TMTC4 KO and wild type mice were extracted. One group of explants was treated with the SERCA2b inhibitor thapsigargin. The expression of UPR stress pathway genes S-XBP1 BiP, CHOP, and the apoptotic gene Caspase 3 were measured by mRNA quantification (FIG. 2). In the untreated explants, the expression of the UPR stress response markers and of Caspase3 were about equal.

Assay [5] relates to wild type fibroblasts (ER Ca2+). Briefly: Ca2+ quantification in intracellular compartments of fibroblasts by Mag-FURA-2 imaging. Format: cell-based, mouse. The note with it: ten minutes with 1 micromolar ATP and 1 micromolar thapsigargin. Here is the method:
In one experiment, quantification of Ca2^+ was performed in intracellular compartments of fibroblasts by Mag-FURA-2 imaging. In wild type fibroblasts, an area of high Ca2^+ concentration in the perinuclear region corresponding to the ER was observed. […] Quantification of the Ca2^+ gradient between ER and cytosol compartments in fibroblasts was also measured in both wild type and TMTC4 KO mice.

As for `O=C(COc1ccc(Cl)cc1)N[C@H]1CC[C@H](NC(=O)COc2ccc(Cl)cc2)CC1` [ISRIB, trans-N,N′-(cyclohexane-1,4-diyl)bis(2-(4-chlorophenoxy)acetamide)], in assay [1], the “ATF4 mRNA expression” value was “significant and substantial reduction”; the “CHOP mRNA expression” value is “significant and substantial reduction”. In addition, in assay [2], the “ABR threshold to clicks at 8 kHz and 16 kHz” value is “lower in treated mice than in untreated mice”.

Regarding `C/C=C(/C)C(=O)O[C@H]1C(C)=C2[C@H]([C@@H]1OC(=O)CCCCCCC)[C@@](C)(OC(C)=O)C[C@H](OC(=O)CCC)[C@@]1(O)[C@H]2OC(=O)[C@@]1(C)O` [thapsigargin], the “expression of UPR stress response markers (S-XBP1, BiP, CHOP) mRNA” value in assay [3] is “substantially elevated in the TMTC4 KO cells compared to wild type cells”. The “expression of UPR stress response markers (S-XBP1, BiP, CHOP) and Caspase 3 mRNA” value in assay [4] was “substantially elevated”. The “Ca2+ concentration of perinuclear region (ER)” value in assay [5] was “reduced to that observed in the surrounding cytosol”.
